Test results published in patent US5482957A, “Azole derivatives, process for their preparation and their use” (Hoechst Aktiengesellschaft, priority 1991, dated 1996).

molecular target: angiotensin II receptor; assay: Displacement of 125I- or 3H-angiotensin II from receptor preparations from various organs (liver, lung, adrenal gland, brain etc.); assay type: binding; settings: Table 1; radioligand displacement, 25° C., 90 min, pH 7.4
Method: Alternatively, the affinity of the compounds of the formula I for the angiotensin II receptor can be determined by measurement of the ^125 I-angiotensin II or ^3 H-angiotensin II displacement of receptor preparations from various organs (liver, lung, adrenal gland, brain etc.).
To this end, the prepared membranes are suspended in an incubation buffer ([…], pH 7.4, containing 135 mM NaCl, 10 mM KCl, 10 mM MgCl2, 5 mM glucose, 0.2% bovine serum albumin and the protease inhibitors PMSF, 0.3 mM, and bacitracin, 0.1 mM) and incubated at 25° C. for 90 min together with the radioactively labeled angiotensin II and various concentrations of the compounds to be tested. Bound and free radioligand are then separated by filtration through micro glass fiber filters (GF51, Schleicher and Schull) in a cell collector (SKATRON).
The degree of displacement of the radioligand from the receptor by the test compounds is determined by measurement of the receptor-bound radioactivity on the filters by means of a beta- or gamma-spectrometer. The amount of the displacement of the radioligand from the receptor by the test compounds is indicated by the IC50, i.e. the concentration of the inhibitor which displaces 50% of the bound radioligand from the receptor. The calculation of the IC50 values is carried out by means of PC software (LIGAND, G. A. McPherson 1985, Elsevier BIOSOFT, 68 Hills Road, Cambridge, CB2 1LA, UK.).

SMILES | IC50 [nM]
CCCCc1nc(SC)c(C(=O)OCC)n1Cc1ccc(-c2ccccc2S(=O)(=O)NS(=O)(=O)c2ccc([N+](=O)[O-])cc2)cc1 [Example 191] | 21.4
CCCCc1nc(SC)c(C(=O)OCC)n1Cc1ccc(-c2ccccc2S(=O)(=O)NS(=O)(=O)c2cccs2)cc1 [Example 194] | 21.7
CCCCc1nc(SC)c(C(=O)OCC)n1Cc1ccc(-c2ccccc2S(=O)(=O)NC(=O)NC)cc1 [Example 195] | 3
